Reference: the NIST ThermoML archive (doi:10.1021/acs.jced.9b00057)

Assay: wn = mass fraction of the nth substance listed
Conditions: 298 K, 100 kPa, Liquid; for mass density: Vibrating tube method

CCCC(=O)O [butanoic acid] + O
Conditions | mass density [kg/m3]
w1 = 6.86e-05 | 997.07
w1 = 0.000154 | 997.07
w1 = 0.000352 | 997.09
w1 = 0.000628 | 997.08
w1 = 0.000783 | 997.12
w1 = 0.00206 | 997.2
w1 = 0.0023 | 997.22
w1 = 0.00429 | 997.33
w1 = 0.00704 | 997.57
w1 = 0.00763 | 997.62
w1 = 0.0151 | 998.25
w1 = 0.0157 | 998.3
w1 = 0.0285 | 999.62
w1 = 0.0453 | 1001.89
w1 = 0.0508 | 1002.79
w1 = 0.0589 | 1004.25
w1 = 0.073 | 1000.5
w1 = 0.087 | 1001.01
w1 = 0.0974 | 1014.17

CCCCCCCCCC(=O)[O-].CCCCCCCCCCCCCC[P+](CCCCCC)(CCCCCC)CCCCCC [trihexyltetradecylphosphonium decanoate] + O
Conditions | viscosity [mPa·s]
Cone and plate viscometry, w2 = 0.162 | 96.1

Conditions | mass density [kg/m3]
w2 = 0.162 | 900
